Laboratory results taken from PMC7321301, “Characteristics of New Peptides GQLGEHGGAGMG, GEHGGAGMGGGQFQPV, EQGFLPGPEESGR, RLARAGLAQ, YGNPVGGVGH, and GNPVGGVGHGTTGT as Inhibitors of Enzymes Involved in Metabolic Syndrome and Antimicrobial Potential” (Molecules, 2020).
No end group written: not given here.

tested on: HECa10 cells; assay: LDH test; assay type: cell-based, murine; conditions: 24-h incubation, 0.1–100 µg/mL
Description: The study was conducted according to the procedure described by Rokicki et al.. HECa10 cells after 80–90% confluence were trypsinized (3 min, 37 °C), centrifuged (300 g, 5 min), counted, and plated in 96-well plates at a concentration of 1 × 10^4 cells/well. Then, 24 h after seeding, cells were washed with phosphate-buffered saline (PBS) solution and culture medium (Dulbecco’s Modified Eagle Medium (DMEM) + 10% fetal bovine serum (FBS) + antibiotics, all from Life Technologies, Warsaw, Poland) was added with test factors in concentrations: 0.1; 1; 5; 10; 50; 100 µg/mL). Then, 24 h after addition of the compounds, proliferation tests (MTT, NR, LDH) were performed. The color intensity was determined using a Fluostar Omega microplate reader. Results are presented as the mean ± SD of 3 independent experiments (n = 12).
The cells were seeded in a 96-well culture plate at a concentration of 1 × 10^4 cells/well. Then, 24 h after seeding, the cells were rinsed twice with PBS (Life Technologies, Poland) and resuspended in fresh growth medium. Peptide fractions were added at concentrations of 0 (control), 0.1, 1, 5, 10, 50, and 100 µg/mL. After 24 h incubation with the proteins, activity of released from cells lactate dehydrogenase was assessed (Pierce Ldh Cytotoxicity Assay Kit, Life Technologies, Warsaw Poland).The absorption was measured at a wavelength of 540 nm with the background cutoff at 490 nm (FLUOstar Omega, BMG Labtech GmbH, Ortenberg, Germany). The results are presented as the percentage of the control values (mean ± SD). Each assay was performed in triplicate (n = 18).

Sequence | LDH activity test, HECa10 cells compared to control
EQGFLPGPEESGR [ER-13, EQGFLPGPEESGR] | no statistically significant differences
GNPVGGVGHGTTGT [GT-14, GNPVGGVGHGTTGT] | no statistically significant differences
GQLGEHGGAGMG [GG-12, GQLGEHGGAGMG] | no statistically significant differences
RLARAGLAQ [RQ-9, RLARAGLAQ] | no statistically significant differences
YGNPVGGVGH [YH-10, YGNPVGGVGH] | no statistically significant differences
GEHGGAGMGGGQFQPV [GV-16, GEHGGAGMGGGQFQPV] | no statistically significant differences
